Results: ChEMBL document CHEMBL3045661, “SYNTHESIS AND CYTOTOXIC PROPERTIES OF NITRO- AND AMINOCHALCONES” (Med Chem Res, 2005)

Test system: B16
Assay: Cytotoxicity against Mus musculus (mouse) B16 cells after 3 days by MTT assay
Format: functional, cell-based
Details: B16, 72 h

Row | SMILES | IC50 [µM]
1 | COc1cc(C(=O)/C=C/c2ccc(N)cc2)cc(OC)c1OC | 30
2 | COc1ccc(C(=O)/C=C/c2ccc(OC)c(OC)c2)cc1N | 18
3 | COc1ccc(OC)c(C(=O)/C=C/c2ccc(N)cc2)c1 | > 100
4 | COc1ccc(OC)c(/C=C/C(=O)c2ccc(OC)c([N+](=O)[O-])c2)c1 | 13
5 | COc1ccc(OC)c(/C=C/C(=O)c2ccc(OC)c(N)c2)c1 | 5.6
6 | COc1ccc(OC)c(C(=O)/C=C/c2ccc(OC)c([N+](=O)[O-])c2)c1 | > 100
7 | COc1ccc(OC)c(C(=O)/C=C/c2ccc(OC)c(N)c2)c1 | 2
8 | COc1ccc(C(=O)/C=C/c2cc(OC)c(OC)c(OC)c2)cc1N | 67
9 | COc1cccc(/C=C/C(=O)c2ccc(OC)c([N+](=O)[O-])c2)c1 | > 100
10 | COc1ccc(C(=O)/C=C/c2ccccc2)cc1N | > 100
11 | COc1cccc(/C=C/C(=O)c2ccc(OC)c(N)c2)c1 | 33
12 | COc1ccc(C(=O)/C=C/c2ccccc2)cc1[N+](=O)[O-] | > 100
13 | COc1ccc(/C=C/C(=O)c2cc(OC)c(OC)c(OC)c2)cc1[N+](=O)[O-] | > 100
14 | COc1cc(/C=C/C(=O)c2ccc(OC)c(N)c2)cc(OC)c1 | 8.8
15 | COc1ccc(C(=O)/C=C/c2cc(OC)c(OC)c(OC)c2)cc1[N+](=O)[O-] | > 100
16 | COc1ccc(/C=C/C(=O)c2cc(OC)c(OC)c(OC)c2)cc1N | 0.24
17 | COc1ccc(/C=C/C(=O)c2ccc(OC)c([N+](=O)[O-])c2)cc1 | > 100
18 | COc1ccc(/C=C/C(=O)c2ccc(OC)c([N+](=O)[O-])c2)cc1OC | > 100
19 | COc1cc(C(=O)/C=C/c2ccc([N+](=O)[O-])cc2)cc(OC)c1OC | > 100
20 | COc1cc(/C=C/C(=O)c2ccc(OC)c([N+](=O)[O-])c2)cc(OC)c1 | 5.6
21 | COc1ccc(/C=C/C(=O)c2ccc(OC)c(N)c2)cc1 | 43
22 | COc1ccc(OC)c(C(=O)/C=C/c2ccc([N+](=O)[O-])cc2)c1 | > 100

Test system: HeLa
Assay: Cytotoxicity against Homo sapiens (human) HeLa cells
Format: functional, cell-based
Details: not given

Row | SMILES | IC50 [µM]
23 | COc1cc(C(=O)/C=C/c2ccc(N)cc2)cc(OC)c1OC | 0.48
24 | COc1cc(C(=O)/C=C/c2ccc([N+](=O)[O-])cc2)cc(OC)c1OC | 73
